Several values for one entry are separate records, joined by “and”; a condition that tells them apart may be missing. Equal values may be shown once.
Legend:
rat BCAT cytosolic form = target: T1, rat BCAT cytosolic form (Rattus norvegicus, UniProt P54690); assay: In vitro coupled enzyme assay (glutamate dehydrogenase, NADH formation), rat BCATc; format: biochemical; details: recombinant rat BCATc, 37° C., 25 mM phosphate buffer pH 7.8; several values in a cell = repeat determinations; read-out: RrBCATc
T1 construct: made in house; host or cells: E. coli BL21(DE3)
T1 sequence (P54690 1-411): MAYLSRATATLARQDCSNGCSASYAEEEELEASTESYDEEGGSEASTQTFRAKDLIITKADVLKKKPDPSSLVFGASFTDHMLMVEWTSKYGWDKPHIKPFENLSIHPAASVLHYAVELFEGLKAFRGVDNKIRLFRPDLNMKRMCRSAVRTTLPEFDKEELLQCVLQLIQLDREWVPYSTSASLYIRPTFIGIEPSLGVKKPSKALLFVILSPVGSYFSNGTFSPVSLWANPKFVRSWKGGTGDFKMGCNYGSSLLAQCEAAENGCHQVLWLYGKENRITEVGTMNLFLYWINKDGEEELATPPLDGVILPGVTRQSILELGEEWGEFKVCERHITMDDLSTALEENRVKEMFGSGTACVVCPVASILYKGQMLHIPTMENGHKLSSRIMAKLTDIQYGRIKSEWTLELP
In short: (§1)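 At 37 °C in 25 mM phosphate pH 7.8 with 2 mM DTT, 1.25 μg His-tag-purified E. coli-expressed BCAT transaminated 750 μM L-leucine with 500 μM α-ketoglutarate and 10 μM PLP. Glutamate was coupled via glutamate dehydrogenase (1 mM NAD+, 4 mM ADP) to NADH formation at 340 nm. Compounds were added in DMSO up to 5% v/v.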

[1] = target: T2, human Branched Chain Amino Acid Aminotransferase cytosolic form (hBCATc) (Homo sapiens, UniProt P54687); assay: In vitro coupled enzyme assay (glutamate dehydrogenase, NADH formation), human BCATc; format: biochemical; details: recombinant human BCATc, 37° C., 25 mM phosphate buffer pH 7.8; several values in a cell = repeat determinations; read-out: RhBCATc
T2 construct: made in house; host or cells: E. coli BL21(DE3)
T2 sequence (P54687 1-386): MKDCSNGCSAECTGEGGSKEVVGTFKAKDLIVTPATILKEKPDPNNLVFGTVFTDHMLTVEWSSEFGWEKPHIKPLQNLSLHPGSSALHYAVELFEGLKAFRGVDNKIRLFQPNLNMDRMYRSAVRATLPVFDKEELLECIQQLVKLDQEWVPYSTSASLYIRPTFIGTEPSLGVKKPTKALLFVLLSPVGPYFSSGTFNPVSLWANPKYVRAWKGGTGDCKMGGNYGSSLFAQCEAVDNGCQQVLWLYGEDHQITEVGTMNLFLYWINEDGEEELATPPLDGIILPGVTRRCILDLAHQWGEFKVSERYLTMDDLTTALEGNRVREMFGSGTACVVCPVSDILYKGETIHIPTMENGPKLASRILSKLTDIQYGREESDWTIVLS
In short: as §1

IC50 (rat BCAT cytosolic form) [µM] | IC50 [1] | Compound
0.72 | 11.1 µM | O=C(NNS(=O)(=O)c1cccc(Cl)c1Cl)c1ccc2oc3ccccc3c2c1 [Example 110, 2-Dibenzofurancarboxylic acid, 2-[(2,3-dichlorophenyl)sulfonyl]hydrazide]
0.47 | 0.47 µM and 2.8 µM | Cc1cccc(S(=O)(=O)NNC(=O)c2ccc3ccccc3c2)c1 [Example 111, 2-Naphthalenecarboxylic acid, 2-[(3-methylphenyl)sulfonyl]hydrazide]
6.2 | 14.6 µM | Cc1ccc(S(=O)(=O)NNC(=O)c2ccc3ccccc3c2)cc1 [Example 112, 2-Naphthalenecarboxylic acid, 2-[(4-methylphenyl)sulfonyl]hydrazide]
0.53 | 4.1 µM | O=C(NNS(=O)(=O)c1ccccc1C(F)(F)F)c1ccc2ccccc2c1 [Example 113]
26.5 | 59.7 µM | O=C(NNS(=O)(=O)c1ccc(C(F)(F)F)cc1)c1ccc2ccccc2c1 [Example 114]
5.2 | 59.9 µM | O=C(NNS(=O)(=O)c1ccc(F)c(Cl)c1)c1ccc2ccccc2c1 [Example 115, 2-Naphthalenecarboxylic acid, 2-[(3-chloro-4-fluorophenyl)sulfonyl]hydrazide]
1.2 | 8.2 µM | COc1cccc(S(=O)(=O)NNC(=O)c2ccc3ccccc3c2)c1 [Example 116, 2-Naphthalenecarboxylic acid, 2-[(3-methoxyphenyl)sulfonyl]hydrazide]
0.82 | 5.7 µM | O=C(NNS(=O)(=O)c1cccc(Cl)c1)c1ccc2ccccc2c1 [Example 117, 2-Naphthalenecarboxylic acid, 2-[(3-chlorophenyl)sulfonyl]hydrazide]
1.8 | 25 µM | O=C(NNS(=O)(=O)c1ccccc1Cl)c1ccc2ccccc2c1 [Example 118, 2-Naphthalenecarboxylic acid, 2-[(2-chlorophenyl)sulfonyl]hydrazide]
2.2 | 12.7 µM | O=C(NNS(=O)(=O)c1cccc(F)c1)c1ccc2ccccc2c1 [Example 119, 2-Naphthalenecarboxylic acid, 2-[(3-fluorophenyl)sulfonyl]hydrazide]
2 | 18.1 µM | O=C(NNS(=O)(=O)c1cccc(Cl)c1Cl)c1ccc2ccccc2c1 [Example 120, 2-Naphthalenecarboxylic acid, 2-[(2,3-dichlorophenyl)sulfonyl]hydrazide]
11.6 | 55 µM | CCc1ccc(S(=O)(=O)NNC(=O)c2ccc3ccccc3c2)cc1 [Example 121, 2-Naphthalenecarboxylic acid, 2-[(4-ethylphenyl)sulfonyl]hydrazide]
56.7 | 58 µM | CCCCCc1ccc(S(=O)(=O)NNC(=O)c2cnc3ccccc3c2)cc1 [Example 122, 3-Quinolinecarboxylic acid, 2-[(4-pentylphenyl)sulfonyl)hydrazide]
2.2 | 11.6 µM | O=C(NNS(=O)(=O)c1ccccc1C(F)(F)F)c1cnc2ccccc2c1 [Example 123, 3-Quinolinecarboxylic acid, 2-[[2-(trifluoromethyl)phenyl]sulfonyl]hydrazide]
2.4 | 18.4 µM | Cc1cccc(S(=O)(=O)NNC(=O)c2cnc3ccccc3c2)c1 [Example 125, 3-Quinolinecarboxylic acid, 2-[(3-methylphenyl)sulfonyl]hydrazide]
12.5 | 36.2 µM | O=C(NNS(=O)(=O)c1ccccc1OC(F)(F)F)c1cnc2ccccc2c1 [Example 126, 3-Quinolinecarboxylic acid, 2-[[2-(trifluoromethoxy)phenyl]sulfonyl]hydrazide]
2.5 | 17.8 µM | O=C(NNS(=O)(=O)c1ccccc1)c1cc2ccccc2o1 [Example 146, Benzofuran-2-carboxylic acid 2-(phenylsulfonyl)hydrazide]
1.9 | 15.3 µM | O=C(NNS(=O)(=O)c1ccccc1)c1ccc2[nH]ccc2c1 [Example 153, 1H-Indole-5-carboxylic acid 2-(phenylsulfonyl)hydrazide]
